“And” between values parts separate entries of the source, which are not always exact repeats. Equal values may be shown once.
Tests used:
[1] = target: Sodium-dependent noradrenaline transporter (Homo sapiens, UniProt P23975)
[2] = target: Kappa-type opioid receptor (Homo sapiens, UniProt P41145)
[3] = target: Delta-type opioid receptor (Homo sapiens, UniProt P41143)
[4] = target: 5-hydroxytryptamine receptor 7 (Homo sapiens, UniProt P34969)
[5] = target: Muscarinic acetylcholine receptor M3 (Homo sapiens, UniProt P20309)
[6] = target: D(4) dopamine receptor (Rattus norvegicus, UniProt P30729)
[7] = target: D(1B) dopamine receptor (Homo sapiens, UniProt P21918)
[8] = target: Sodium-dependent serotonin transporter (Homo sapiens, UniProt P31645)
[9] = target: 5-hydroxytryptamine receptor 2C (Rattus norvegicus, UniProt P08909)
[10] = target: Sodium-dependent dopamine transporter (Bos taurus, UniProt P27922)
[11] = target: 5-hydroxytryptamine receptor 2A (Rattus norvegicus, UniProt P14842)
[12] = target: Muscarinic acetylcholine receptor M5 (Homo sapiens, UniProt P08912)
[13] = target: Alpha-1A adrenergic receptor (Homo sapiens, UniProt P35348)
[14] = target: Gamma-aminobutyric acid type B receptor subunit 1 (UniProt Q9Z0U4)
[15] = target: Vasopressin V1b receptor (Homo sapiens, UniProt P47901)
[16] = target: Muscarinic acetylcholine receptor M1 (Homo sapiens, UniProt P11229)
[17] = target: D(2) dopamine receptor (Rattus norvegicus, UniProt P61169)
[18] = target: 5-hydroxytryptamine receptor 1D (Homo sapiens, UniProt P28221)
[19] = target: Mu-type opioid receptor (Homo sapiens, UniProt P35372)
[20] = target: Alpha-2B adrenergic receptor (Homo sapiens, UniProt P18089)
[21] = target: 5-hydroxytryptamine receptor 1E (Homo sapiens, UniProt P28566)
[22] = target: Beta-2 adrenergic receptor (Homo sapiens, UniProt P07550)
[23] = target: Beta-1 adrenergic receptor (Homo sapiens, UniProt P08588)
[24] = target: Alpha-2A adrenergic receptor (Homo sapiens, UniProt P08913)
[25] = target: D(1A) dopamine receptor (Homo sapiens, UniProt P21728)
[26] = target: Alpha-1B adrenergic receptor (Homo sapiens, UniProt P35368)
[27] = target: Muscarinic acetylcholine receptor M4 (Homo sapiens, UniProt P08173)
[28] = target: 5-hydroxytryptamine receptor 5A (Homo sapiens, UniProt P47898)
[29] = target: Glutamate receptor ionotropic, NMDA 1 (Rattus norvegicus, UniProt P35439)
[30] = target: Alpha-2C adrenergic receptor (Homo sapiens, UniProt P18825)
Alpha-2C adrenergic receptor, sequence (P18825 whole entry): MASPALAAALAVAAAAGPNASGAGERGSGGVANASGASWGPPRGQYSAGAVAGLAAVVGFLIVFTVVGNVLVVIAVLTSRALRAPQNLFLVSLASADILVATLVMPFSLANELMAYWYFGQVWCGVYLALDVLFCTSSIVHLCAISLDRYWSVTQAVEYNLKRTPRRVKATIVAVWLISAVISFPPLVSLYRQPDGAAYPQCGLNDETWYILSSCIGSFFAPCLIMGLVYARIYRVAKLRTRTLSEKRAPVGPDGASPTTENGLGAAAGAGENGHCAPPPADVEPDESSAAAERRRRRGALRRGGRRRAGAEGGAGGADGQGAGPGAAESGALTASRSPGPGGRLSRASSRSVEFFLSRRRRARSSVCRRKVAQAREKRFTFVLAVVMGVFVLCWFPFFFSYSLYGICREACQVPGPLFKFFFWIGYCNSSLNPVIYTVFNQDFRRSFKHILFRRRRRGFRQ

Beta-2 adrenergic receptor, sequence (P07550 whole entry): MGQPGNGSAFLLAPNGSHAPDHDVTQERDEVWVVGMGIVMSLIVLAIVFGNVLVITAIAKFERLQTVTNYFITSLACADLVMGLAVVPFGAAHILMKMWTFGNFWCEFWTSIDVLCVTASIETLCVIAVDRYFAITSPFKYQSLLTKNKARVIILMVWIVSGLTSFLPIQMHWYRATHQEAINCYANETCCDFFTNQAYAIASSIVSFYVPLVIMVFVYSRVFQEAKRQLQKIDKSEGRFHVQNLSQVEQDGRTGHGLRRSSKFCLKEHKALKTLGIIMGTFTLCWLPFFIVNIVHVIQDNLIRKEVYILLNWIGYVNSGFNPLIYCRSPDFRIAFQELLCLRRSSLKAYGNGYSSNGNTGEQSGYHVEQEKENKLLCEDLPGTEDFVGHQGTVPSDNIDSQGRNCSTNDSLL
5-hydroxytryptamine receptor 7, sequence (P34969 whole entry): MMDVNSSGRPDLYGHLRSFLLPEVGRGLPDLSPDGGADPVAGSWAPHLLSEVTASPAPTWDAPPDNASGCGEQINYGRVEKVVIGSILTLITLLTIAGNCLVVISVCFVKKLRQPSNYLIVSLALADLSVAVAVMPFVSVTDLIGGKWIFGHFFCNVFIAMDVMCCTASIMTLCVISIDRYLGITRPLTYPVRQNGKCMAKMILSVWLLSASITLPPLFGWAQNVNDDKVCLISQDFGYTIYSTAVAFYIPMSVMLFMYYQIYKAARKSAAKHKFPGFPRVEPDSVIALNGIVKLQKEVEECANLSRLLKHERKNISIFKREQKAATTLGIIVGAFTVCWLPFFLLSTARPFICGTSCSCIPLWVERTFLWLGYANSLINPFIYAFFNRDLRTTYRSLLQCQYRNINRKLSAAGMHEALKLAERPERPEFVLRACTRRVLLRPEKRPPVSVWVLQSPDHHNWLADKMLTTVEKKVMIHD
Beta-1 adrenergic receptor, sequence (P08588 whole entry): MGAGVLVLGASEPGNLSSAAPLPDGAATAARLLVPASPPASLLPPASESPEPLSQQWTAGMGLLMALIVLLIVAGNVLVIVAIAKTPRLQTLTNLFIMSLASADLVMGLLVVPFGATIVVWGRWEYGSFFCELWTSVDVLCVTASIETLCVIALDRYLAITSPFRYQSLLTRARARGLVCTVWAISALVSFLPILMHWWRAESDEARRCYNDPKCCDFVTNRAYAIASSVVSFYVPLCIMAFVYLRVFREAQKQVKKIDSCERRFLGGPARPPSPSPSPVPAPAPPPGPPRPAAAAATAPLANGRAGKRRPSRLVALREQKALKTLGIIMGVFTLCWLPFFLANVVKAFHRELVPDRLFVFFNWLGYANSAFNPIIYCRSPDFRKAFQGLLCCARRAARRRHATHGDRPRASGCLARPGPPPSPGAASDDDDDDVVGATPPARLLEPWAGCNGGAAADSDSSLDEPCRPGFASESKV
Muscarinic acetylcholine receptor M1, sequence (P11229 whole entry): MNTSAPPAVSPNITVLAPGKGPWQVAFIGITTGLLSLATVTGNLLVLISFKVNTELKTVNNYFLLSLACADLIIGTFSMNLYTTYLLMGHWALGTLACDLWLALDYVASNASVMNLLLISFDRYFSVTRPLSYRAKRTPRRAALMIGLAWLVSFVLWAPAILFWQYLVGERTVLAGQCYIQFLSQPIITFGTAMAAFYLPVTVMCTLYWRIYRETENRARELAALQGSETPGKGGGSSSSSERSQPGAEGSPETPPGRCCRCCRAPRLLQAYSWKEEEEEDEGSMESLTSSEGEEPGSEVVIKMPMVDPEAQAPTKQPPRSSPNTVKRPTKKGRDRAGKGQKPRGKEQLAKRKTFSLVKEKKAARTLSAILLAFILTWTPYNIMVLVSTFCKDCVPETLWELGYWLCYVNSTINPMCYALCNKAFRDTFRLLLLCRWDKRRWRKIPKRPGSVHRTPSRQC
Alpha-1A adrenergic receptor, sequence (P35348 whole entry): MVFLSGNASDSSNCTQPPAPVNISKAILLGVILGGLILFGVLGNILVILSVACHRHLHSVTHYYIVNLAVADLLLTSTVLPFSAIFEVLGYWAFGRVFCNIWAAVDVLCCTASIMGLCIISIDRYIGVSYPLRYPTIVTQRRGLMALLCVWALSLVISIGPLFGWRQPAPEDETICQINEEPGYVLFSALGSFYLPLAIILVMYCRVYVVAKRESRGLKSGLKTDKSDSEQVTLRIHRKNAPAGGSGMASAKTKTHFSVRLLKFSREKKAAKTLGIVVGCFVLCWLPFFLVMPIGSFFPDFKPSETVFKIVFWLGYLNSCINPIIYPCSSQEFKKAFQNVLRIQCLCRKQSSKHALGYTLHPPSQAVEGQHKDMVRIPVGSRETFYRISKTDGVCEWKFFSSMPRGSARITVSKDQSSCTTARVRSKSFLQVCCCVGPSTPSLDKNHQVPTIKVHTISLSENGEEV
Alpha-2A adrenergic receptor, sequence (P08913 whole entry): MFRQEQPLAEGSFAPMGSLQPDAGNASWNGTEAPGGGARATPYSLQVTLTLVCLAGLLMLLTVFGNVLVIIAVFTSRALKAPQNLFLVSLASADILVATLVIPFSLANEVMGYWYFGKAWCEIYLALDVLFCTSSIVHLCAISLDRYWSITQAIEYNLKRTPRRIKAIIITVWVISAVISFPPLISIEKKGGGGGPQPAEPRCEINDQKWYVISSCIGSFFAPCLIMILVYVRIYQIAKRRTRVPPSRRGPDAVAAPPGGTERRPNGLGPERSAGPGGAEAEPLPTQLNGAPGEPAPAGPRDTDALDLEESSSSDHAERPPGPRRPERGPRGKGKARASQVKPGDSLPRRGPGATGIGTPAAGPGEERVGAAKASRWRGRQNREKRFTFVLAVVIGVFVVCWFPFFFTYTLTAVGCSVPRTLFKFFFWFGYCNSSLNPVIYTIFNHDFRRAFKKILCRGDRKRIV
5-hydroxytryptamine receptor 1D, sequence (P28221 whole entry): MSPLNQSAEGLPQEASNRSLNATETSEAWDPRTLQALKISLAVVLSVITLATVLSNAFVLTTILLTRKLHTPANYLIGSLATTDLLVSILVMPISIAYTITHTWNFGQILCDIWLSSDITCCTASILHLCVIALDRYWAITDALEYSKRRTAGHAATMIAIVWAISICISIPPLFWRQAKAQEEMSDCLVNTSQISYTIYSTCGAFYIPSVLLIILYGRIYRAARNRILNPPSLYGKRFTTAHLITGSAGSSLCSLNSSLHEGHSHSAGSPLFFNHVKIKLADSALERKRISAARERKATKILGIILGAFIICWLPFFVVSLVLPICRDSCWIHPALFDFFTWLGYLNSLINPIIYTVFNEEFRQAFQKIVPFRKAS
Muscarinic acetylcholine receptor M3, sequence (P20309 whole entry): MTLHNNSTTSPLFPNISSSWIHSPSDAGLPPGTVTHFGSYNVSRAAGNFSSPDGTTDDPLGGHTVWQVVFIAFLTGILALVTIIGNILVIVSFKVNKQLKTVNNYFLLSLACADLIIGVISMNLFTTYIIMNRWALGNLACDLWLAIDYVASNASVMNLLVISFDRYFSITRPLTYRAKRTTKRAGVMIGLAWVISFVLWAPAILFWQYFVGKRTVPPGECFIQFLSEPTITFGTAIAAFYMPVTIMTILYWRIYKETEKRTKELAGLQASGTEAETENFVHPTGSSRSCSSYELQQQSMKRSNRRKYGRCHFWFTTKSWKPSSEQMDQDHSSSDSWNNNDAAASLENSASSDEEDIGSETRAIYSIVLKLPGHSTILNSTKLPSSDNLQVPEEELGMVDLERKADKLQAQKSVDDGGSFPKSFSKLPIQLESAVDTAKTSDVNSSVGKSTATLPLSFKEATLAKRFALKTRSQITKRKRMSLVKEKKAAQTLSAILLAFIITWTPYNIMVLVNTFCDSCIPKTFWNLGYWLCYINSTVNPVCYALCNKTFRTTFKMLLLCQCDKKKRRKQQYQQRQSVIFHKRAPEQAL
Alpha-2B adrenergic receptor, sequence (P18089 whole entry): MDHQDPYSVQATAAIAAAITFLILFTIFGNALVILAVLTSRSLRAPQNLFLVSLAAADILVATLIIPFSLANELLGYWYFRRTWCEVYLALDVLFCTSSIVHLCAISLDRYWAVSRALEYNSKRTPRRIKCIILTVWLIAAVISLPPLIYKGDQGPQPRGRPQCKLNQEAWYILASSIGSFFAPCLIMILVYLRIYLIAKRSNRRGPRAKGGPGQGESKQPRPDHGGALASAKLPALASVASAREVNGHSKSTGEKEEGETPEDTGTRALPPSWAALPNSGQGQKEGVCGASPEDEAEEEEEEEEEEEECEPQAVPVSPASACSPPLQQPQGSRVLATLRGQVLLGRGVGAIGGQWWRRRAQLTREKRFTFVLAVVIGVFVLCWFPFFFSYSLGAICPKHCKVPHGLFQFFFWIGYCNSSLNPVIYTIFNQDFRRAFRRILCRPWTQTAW

Question: What does the source list for CC(CF)NCC(O)COc1cccc2[nH]c3ccccc3c12 [Fluorocarazolol,(S)]?
Answer: Ki [1]: > 10 µM; Ki [2]: > 10 µM; Ki [3]: > 10 µM; Ki [4]: 7.07 µM and 6.4 µM; Ki [5]: > 10 µM and 1.59 µM; Ki [6]: > 10 µM; Ki [7]: > 10 µM; Ki [8]: > 10 µM; Ki [9]: > 10 µM; Ki [10]: > 10 µM; Ki [11]: > 10 µM; Ki [12]: 4.88 µM and 5.89 µM; Ki [13]: 3.2 µM and 0.611 µM; Ki [14]: > 10 µM; Ki [15]: > 10 µM; Ki [16]: 2.73 µM and 1.75 µM; Ki [17]: > 10 µM; Ki [18]: 3.28 µM and 3.09 µM; Ki [19]: > 10 µM; Ki [20]: > 10 µM and 8.85 µM; Ki [21]: > 10 µM; Ki [22]: 0.138 nM and 0.079 nM; Ki [23]: 0.00045 µM and 0.000114 µM; Ki [24]: 3.36 µM and 2.87 µM; Ki [25]: > 10 µM; Ki [26]: 4.6 µM and 0.677 µM; Ki [27]: 5.41 µM and > 10 µM; Ki [28]: > 10 µM; Ki [29]: > 10 µM; Ki [30]: 1.89 µM and 4.4 µM
